Measured values as given in BindingDB's records for doi:10.1021/jm050060l (University of Perugia Via Del Liceo, 2021).

Legend:
[1] = biological target: T1, Neuropeptide Y receptor type 1 (Homo sapiens, UniProt P25929); assay: Displacement of 125I-PYY from human neuropeptide Y Y1 receptor expressed in human SK-N-MC cell membrane assessed as inhibition constant incubated for 1 hrs by competitive binding assay
T1 sequence (P25929 whole entry): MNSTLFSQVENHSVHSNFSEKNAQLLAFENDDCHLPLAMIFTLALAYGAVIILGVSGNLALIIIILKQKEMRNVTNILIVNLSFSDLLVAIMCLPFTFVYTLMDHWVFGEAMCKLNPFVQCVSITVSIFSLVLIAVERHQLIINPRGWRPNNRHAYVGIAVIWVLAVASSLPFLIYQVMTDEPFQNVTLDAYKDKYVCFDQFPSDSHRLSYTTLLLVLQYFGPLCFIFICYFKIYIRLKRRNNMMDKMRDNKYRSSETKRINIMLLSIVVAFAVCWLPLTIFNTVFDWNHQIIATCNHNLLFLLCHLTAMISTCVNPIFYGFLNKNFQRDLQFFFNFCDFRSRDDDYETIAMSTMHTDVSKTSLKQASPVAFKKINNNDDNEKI

[2] = biological target: T2, C-X-C chemokine receptor type 2 (Homo sapiens, UniProt P25025); assay: Antagonist activity at CXCR2 (unknown origin)
T2 sequence (P25025 whole entry): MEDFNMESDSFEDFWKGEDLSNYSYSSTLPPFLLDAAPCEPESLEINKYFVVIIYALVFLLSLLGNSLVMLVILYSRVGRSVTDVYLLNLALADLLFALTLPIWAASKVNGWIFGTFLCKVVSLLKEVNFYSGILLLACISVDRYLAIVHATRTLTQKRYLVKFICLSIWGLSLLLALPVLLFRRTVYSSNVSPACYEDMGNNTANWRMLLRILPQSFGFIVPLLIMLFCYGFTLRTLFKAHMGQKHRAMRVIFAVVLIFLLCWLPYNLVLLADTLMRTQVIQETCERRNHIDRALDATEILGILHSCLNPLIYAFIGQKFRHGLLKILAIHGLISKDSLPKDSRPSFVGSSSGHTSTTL

[3] = biological target: T3, Bifunctional epoxide hydrolase 2 (Homo sapiens, UniProt P34913); assay: Inhibition of recombinant soluble epoxide hydrolase (unknown origin) using [3H]1,3-diphenyl-trans-propene oxide as substrate assessed as inhibition constant incubated for 5 mins
T3 sequence (P34913 whole entry): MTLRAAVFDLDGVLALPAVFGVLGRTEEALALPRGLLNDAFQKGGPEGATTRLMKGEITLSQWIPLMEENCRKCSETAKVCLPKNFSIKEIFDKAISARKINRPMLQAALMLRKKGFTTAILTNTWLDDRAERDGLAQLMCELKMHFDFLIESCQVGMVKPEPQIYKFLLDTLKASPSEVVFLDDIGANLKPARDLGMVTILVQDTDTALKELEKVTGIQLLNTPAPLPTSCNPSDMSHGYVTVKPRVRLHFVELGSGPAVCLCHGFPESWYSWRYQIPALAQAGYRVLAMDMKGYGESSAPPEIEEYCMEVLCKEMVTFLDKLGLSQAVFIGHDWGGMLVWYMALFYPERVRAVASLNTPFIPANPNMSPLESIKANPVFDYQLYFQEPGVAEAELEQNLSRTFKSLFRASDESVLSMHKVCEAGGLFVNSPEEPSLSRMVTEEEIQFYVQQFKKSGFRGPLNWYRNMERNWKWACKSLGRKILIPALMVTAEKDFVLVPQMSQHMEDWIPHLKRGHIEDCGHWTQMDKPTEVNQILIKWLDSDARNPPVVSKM

Compound | Ki [1] | further results
COC(=O)C1=C(C)NC(C)=C(C(=O)OC)C1c1cccc(NC(=O)NCCCN2CCC(c3cccc(OC)c3)CC2)c1 | 3.3 nM | 
COC(=O)C1=CNC(C)=C(C(=O)OC)C1c1cccc(N/C(=N/C#N)NCCCN2CCC(c3cccc(OC)c3)CC2)c1 (stereo unspecified) | 5.1 nM | 
COC(=O)C1=CNC(C)=C(C(=O)OC)C1c1cccc(Nc2nnc(CN3CCC(c4cccc(OC)c4)CC3)o2)c1 (stereo unspecified) | 99 nM | 
COC(=O)C1=CNC(C)=C(C(=O)OC)C1c1cccc(Nc2c(NCCCN3CCC(c4cccc(OC)c4)CC3)c(=O)c2=O)c1 (stereo unspecified) | 21 nM | 
CN(C)C(=O)c1cccc(Nc2c(Nc3ccccc3)c(=O)c2=O)c1O [3-(3,4-dioxo-2-(phenylamino)cyclobut-1-enylamino)-2-hydroxy-N,N-dimethylbenzamide] |  | IC50 [2]: 2 nM
CCCCCCCCCCCCNC(=O)NC1CCCCC1 [US8815951, 297] |  | Ki [3]: 7 nM
